The values below come from patent publication US20060122147A1, “Combination preparation of hyaluronic acid and at least oe local anesthetic and the use thereof” (priority 2002, published 2006).

Where two headings read alike, the source gives them in different places.

The conditions of this data set: 37° C., diffusion time 4 h, lidocaine 0.05% (hya 0.25% where present) in donor compartment.

Consider `CCN(CC)CC(=O)Nc1c(C)cccc1C` [lidocaine], for which the Flux is, setting by setting: (pH 3.1) 0.32 mg h^−1 cm^−2; (pH 6.0) 0.355 mg h^−1 cm^−2; (pH 6.5) 0.315 mg h^−1 cm^−2; (pH 6.9) 0.42 mg h^−1 cm^−2; (pH 7.7) 0.35 mg h^−1 cm^−2; (pH 9.0) 0.09 mg h^−1 cm^−2.
